Results from patent US20250213700A1, “COMPOUNDS, COMPOSITIONS, AND METHODS FOR CELL-SPECIFIC PHARMACOLOGY” (Duke University, priority 2022, published 2025).

How the values were obtained:
[1] = tested on: NMDA or AMPA-mediated transmission; assay: VTA slice, NMDA or AMPA-mediated transmission; assay type: cell-based, mouse
Description: Electrophysiology. Preparation of Brain slices: Mice (8-10 weeks) were injected AAV10 HaloTag™-dTomato to striatum or ventral tegmental area (VTA). After 3-5 weeks, mice were deeply anesthetized with isoflurane and euthanized by decapitation. Coronal brain slices ([…]) containing striatum or VTA were prepared by standard methods using a Vibratome (Leica, VT 1200S), in ice-cold high sucrose cutting solution containing (in mM) 220 sucrose, 3 KCl, 1.25 NaH2PO4, 25 NaHCO3, 12 MgSO4.7H2O, 10 glucose, and 0.2 CaCl2) bubbled with 95% O2 and 5% CO2. […]
Whole-cell patch-clamp recording: The brain slices or retinas were perfused with bubbled aCSF at 29-30° C. with a 2 ml/min flow rate. […] Series resistance was monitored using 5-10 mV hyperpolarizing step throughout the experiment, and cells were discarded if series resistance changed more than ˜15% during the experiment. […] Statistical significance was determined using Student's t or one-way or two-way ANOVA tests. eIPSCs or eEPSCs decay time constants were obtained by fitting a single-exponential function, I(t)=I exp(−t/T)+ISS, where I(t) is the amplitude of the current at time t and ISS is the steady-state current, I is instantaneous current subtracted from Iss, and t is the time constant of decay. […]

[2] = tested on: DAT-Cre mice with +HTP or ddHTP in VTA dopamine neurons; assay: locomotor speed after infusion into the VTA of DAT-Cre mice; assay type: in vivo, mouse; details: for running / locomotor speed, +HTP mice: 10:1 mixture with Alexa647.1DART.2, 1.2 μL of 10 μM into the VTA; for running / locomotor speed, ddHTP mice: same dose
Source text: (FIG. 4A) Validation of gabazine.1^DART.2 in cerebellar slice. Top: voltage-clamp schematic. Bottom: tonic GABAAR in granule cells expressing ^+HTP or ^ddHTP. […] Data are mean±SEM, cells normalized to baseline. (FIG. 4B) In vivo delivery of gabazine.1^DART.2 to cerebellar granule cells. Top right: schematic of experimental approach, GCaMP6f granule-cell activity obtained in the absence of sensory stimuli. Top left: example field of view, GCaMP6f signal averaged across trials. Bottom: example calcium traces (ΔF/F) in an awake ^+HTP mouse before (baseline) and after (1 μL of 1 μM gabazine.1^DART.2) infusion. (FIG. 4C) In vivo, 1 μL of 1 μM gabazine.1^DART.2 to ^+HTP mice. Color indicates ΔF/F, each row is one cell before (left) and after (right) gabazine.1^DART.2 infusion. […] (FIG. 4D) In vivo, 1 μL of 1 μM gabazine.1^DART.2 to ^ddHTP mice. Format as in panel C. […] (FIG. 4E) Validation of gabazine.7^DART.2 in VTA slice. Top: evoked-IPSC configuration. […] Data are mean±SEM, cells normalized to baseline. […] Data are mean±SEM, normalized to baseline speed of each animal.
Behavioral assays: Assays were performed at least 3 weeks after viral injection to allow for recombinant protein expression. Mice were acclimated to head-fixation for 3 consecutive days prior to behavioral experiments. Reagents were infused into the brain via the cranial cannula. Immediately following infusion, mice were placed into open-field chambers (27 cm×27 cm) in the dark, and behavior was recorded using infrared video.
A practical issue for intrinsically active neurons is that one can no longer leverage the concept of a floor-effect (i.e., silencing an already quiet neuron), making it difficult to apply optogenetic principles of necessity and sufficiency. Thus, it was sought to examine the technical feasibility of using DART to block neurotransmitter signaling onto these cells; in essence, preventing extrinsic neurotransmitter modulation of dopamine neurons, without disrupting their intrinsic rhythm. Moreover, it was sought to use behavior as the readout, which would likely require manipulation of more cells over a larger brain volume than in the prior experiment. Given this goal, a wide dosing window is key, and thus effort was focused on gabazine.7DART.2, with expression of AAV DIO +HTPGPI or AAV DIO ddHTPGPI in DAT-Cre mice. […] Next, locomotor effects of the manipulations were assessed using the same viral parameters along with bilateral indwelling cannula.

SMILES | antagonism of the AMPAR in slice [1] | impact on locomotion ([2]; VTA dopamine neurons) | impact on NMDA or AMPA-mediated transmission ([1]; +HTP cells) | running / locomotor speed, +HTP mice [2] | running / locomotor speed, +HTP mice ([2]; listed as gabazine.7^DART.2) | running / locomotor speed, ddHTP mice [2] | running / locomotor speed, ddHTP mice ([2]; listed as gabazine.7^DART.2)
COc1cc(CCCCl)ccc1CCOCCNC(=O)c1ccc(CNC(=O)CCOCCOCCOCCOCCOCCOCCOCCOCCOCCOCCOCCOCCOCCOCCOCCOCCOCCOCCOCCOCCOCCOCCOCCOCCOCCOCCOCCOCCOCCOCCOCCOCCOCCOCCOCCOCCn2cc(COCCOCCOCCOCCOCCOCCNC(=O)CCCn3c(=O)c(=O)[nH]c4cc([N+](=O)[O-])c(-n5ccnc5)cc43)nn2)cc1 [YM90K.1DART.2] | potent antagonism of the AMPAR | no impact on locomotion | – | – | – | – | –
COc1cc(CCCCl)ccc1CCOCCNC(=O)c1ccc(CNC(=O)CCOCCOCCOCCOCCOCCOCCOCCOCCOCCOCCOCCOCCOCCOCCOCCOCCOCCOCCOCCOCCOCCOCCOCCOCCOCCOCCOCCOCCOCCOCCOCCOCCOCCOCCOCCOCCn2cc(COCCOCCOCCOCCOCCOCCOCCCCCCOc3ccc(-c4nn(CCCCC(=O)O)c(=N)cc4C)cc3)nn2)cc1 [gabazine.7DART.2] | – | – | no impact on NMDA or AMPA-mediated transmission | significant increase in running speed | increased locomotor speed | no impact in ^ddHTP animals | not in ^ddHTP control mice
